In publication PMC3303804, “Inflammation-Associated Nitrotyrosination Affects TCR Recognition through Reduced Stability and Alteration of the Molecular Surface of the MHC Complex” (PLoS ONE, 2012):
“Also recorded” adds a separate entry of the source.

What was measured:
T cell hybridoma 24H1 = system: T cell hybridoma 24H1; parameters: method as in PMID 18424715; details: cited from earlier work; for recognition by T cell hybridoma 24H1: H-2K^b/peptide or H-2K^b+ target cells coated with peptide
H-2K^b [1] = target: T1, H-2K^b (Mus musculus, UniProt P01901); assay: MHC complex stability, circular dichroism thermal denaturation; type: binding; details: for Tm (melting temperature): soluble H-2K^b/peptide complex, CD 218 nm, 30-75°C, 48°C/hour, 20 mM K2HPO4/KH2PO4 pH 7.5, protein 0.15 to 0.25 mg/ml, Tm at 50% denaturation
T1 sequence (P01901 whole entry, looked up): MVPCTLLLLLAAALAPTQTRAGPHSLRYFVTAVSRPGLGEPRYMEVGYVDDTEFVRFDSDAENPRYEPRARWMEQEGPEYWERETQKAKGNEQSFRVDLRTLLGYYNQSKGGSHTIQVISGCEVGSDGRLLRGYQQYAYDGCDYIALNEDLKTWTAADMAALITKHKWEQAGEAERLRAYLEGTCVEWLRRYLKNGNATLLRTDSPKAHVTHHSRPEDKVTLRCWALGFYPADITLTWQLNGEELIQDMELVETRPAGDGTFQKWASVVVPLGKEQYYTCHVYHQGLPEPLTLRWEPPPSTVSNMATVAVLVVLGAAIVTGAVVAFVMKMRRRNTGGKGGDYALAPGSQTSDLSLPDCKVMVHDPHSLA

H-2K^b [2] = target: T1, H-2K^b; assay: MHC complex stability, Thermofluor (differential scanning fluorimetry); type: binding; details: H-2K^b/peptide complex 0.25 mg/mL, 10 mM Na^+ HEPES pH 7.3, 150 mM NaCl, SYPRO Orange, 20 to 95°C at 1°C/min; maximum of first derivative; average of three distinct melting curves
Protocol: Differential scanning fluorimetry experiments were carried out using an iQ5 real-time PCR detection system (Bio-Rad). 96-well PCR plates were filled with 23 µl of MHC solution (0.25 mg/mL) in 10 mM Na^+ HEPES buffer (pH 7.3), 150 mM NaCl per well. Finally, the fluorophore (2 µl of 125× SYPRO Orange (Sigma S5692)) was added to each well and the plate was sealed with optical sealing tape (Bio-Rad). An iQ5 Real-Time PCR Detection System, calibrated with External Well factor solution was used to monitor the changes in fluorescence intensity of the fluorophore. The temperature of the samples was changed from 20 to 95°C at a heating rate of 1°C/min and the fluorescence was recorded every 0.2°C. The melting temperature (Tm) of each melting curve was calculated as the maximum of the first derivative of the curve. The average Tm value of each protein was determined from three distinct melting curves.

H-2K^b [3] = target: T1, H-2K^b; assay: Peptide-MHC binding affinity assay, stabilization of H-2K^b on TAP-deficient RMA-S cells; details: 5×10^5, peptide overnight (12 hours) 26°C in serum free AIM-V, then 37°C 60 min without peptide, anti-H-2K^b AF6-88.5, flow cytometry, MFI relative to no peptide, repeated three times
T cell hybridoma 4C8 = details: H-2D^b context; 4C8 is H-2D^b/NY-gp33-specific; cited from earlier work
Source text: A significant amount of the overall CD8^+ T cell response to LCMV is dominated by very few viral epitopes, comprising the H-2D^b-and H-2K^b- restricted peptide gp33–41 (hereafter referred to as gp33; […]) and the H-2K^b-restricted peptide gp34–41 (gp34; […]), [39]. Both gp33 and gp34 contain a single tyrosine residue at positions ...

[4] = average of at least two independent measurements, value ± spread printed in Figure 4B
[5] = average of at least two measurements from two independent refolding assays

| Substance | relative level of recognition by 24H1, NY-gp34 versus NY-gp33 (T cell hybridoma 24H1; H-2K^b context) | recognition by T cell hybridoma 24H1 (T cell hybridoma 24H1) | capacity to stabilize H-2K^b complexes (H-2K^b [1]; CD thermal denaturation, compared to gp34) | decrease in Tm of H-2K^b/NY-gp34 versus H-2K^b/gp34 (H-2K^b [1]; CD, pH 7.5, lower than for H-2K^b/gp34 (nearly)) | Tm (melting temperature) (H-2K^b [1]; [4]) | Tm (melting temperature) (H-2K^b [1]; [5]) | Tm (melting temperature) (H-2K^b [2]) | binding affinity to H-2K^b (cell surface stabilization) (H-2K^b [3]) | recognition by T cell hybridoma 4C8 (T cell hybridoma 4C8) |
| --- | --- | --- | --- | --- | --- | --- | --- | --- | --- |
| AV-p3NY-NFATM [NY-gp34, nitrotyrosinated gp34, AV-p3NY-NFATM] | to a higher level when compared to H-2K^b/NY-gp33 | recognized; also recorded: responded to stimulation | considerably reducing the stability; also recorded: significantly reduced when compared to gp34; also recorded: significantly reduced capacity | ~10 °C | 47.3 ± 0.1 | 47.3 °C | 44.5±0.2 | significantly reduced binding affinity; also recorded: significantly reduced when compared to gp33 and gp34 |  |
| AVYNFATM [gp34] |  | did not recognize |  |  | 56.7 ± 0.1 | 56.7 °C | 54.4±0.1 |  |  |
| KAVYNFATM [gp33] |  | did not recognize |  |  |  |  |  |  | did not recognize |
